Test results from patent US20240100025A1, “Materials and Methods for Treating Viral and Other Medical Conditions” (Biotronik AG, priority 2020, published 2024).

Assays:
[1] = Novartis everolimus study, rats; cited from earlier work
[2] = oral; cited from earlier work
Hantavirus = conditions: 0.05 μM, lowest concentration studied; cited from earlier work

## CO[C@H]1C[C@@H]2CC[C@@H](C)[C@@](O)(O2)C(=O)C(=O)N2CCCC[C@H]2C(=O)O[C@H]([C@H](C)C[C@@H]2CC[C@@H](OCCO)[C@H](OC)C2)CC(=O)[C@H](C)/C=C(\C)[C@@H](O)[C@@H](OC)C(=O)[C@H](C)C[C@H](C)/C=C/C=C/C=C/1C [everolimus]
[1]
  tissue distribution, highest drug concentrations: highest drug concentrations were in the gastrointestinal tract and liver

## CO[C@H]1C[C@@H]2CC[C@@H](C)[C@@](O)(O2)C(=O)C(=O)N2CCCC[C@H]2C(=O)O[C@H]([C@H](C)C[C@@H]2CC[C@@H](O)[C@H](OC)C2)CC(=O)[C@H](C)/C=C(\C)[C@@H](O)[C@@H](OC)C(=O)[C@H](C)C[C@H](C)/C=C/C=C/C=C/1C [sirolimus, Rapamycin]
Protein binding
  fraction unbound: 0.049
[2]
  bioavailability: ~14%

## CO[C@H]1C[C@@H]2CC[C@@H](C)[C@@](O)(O2)C(=O)C(=O)N2CCCC[C@H]2C(=O)O[C@H]([C@H](C)C[C@@H]2CC[C@@H](OC(=O)C(C)(CO)CO)[C@H](OC)C2)CC(=O)[C@H](C)/C=C(\C)[C@@H](O)[C@@H](OC)C(=O)[C@H](C)C[C@H](C)/C=C/C=C/C=C/1C [temsirolimus]
Hantavirus
  reduction in virus titers: 50%
